In patent publication US7351709B2, “Estrogen receptor ligands” (Wyeth, priority 2004, dated 2008):
Like-named read-outs stand apart in the source and are kept apart here.

Key:
ERα [1] = molecular target: T1, ERα (Homo sapiens, UniProt P03372); experiment: IL-6 assay: inhibition of IL-1β induced IL-6 expression in ERα infected HAECT-1 cells; assay type: cell-based; settings: for IC50: Ad5-wt-ER infected HAECT-1 cells, IL-1β stimulated, IL-6 by ELISA; for ER/IL-6 % E2: efficacy relative to the maximal inhibition observed with E2
T1 construct: expressed in transfected cells; host or cells: HAECT-1 cells infected with Ad5-wt-ER adenovirus
T1 sequence (P03372 1-595): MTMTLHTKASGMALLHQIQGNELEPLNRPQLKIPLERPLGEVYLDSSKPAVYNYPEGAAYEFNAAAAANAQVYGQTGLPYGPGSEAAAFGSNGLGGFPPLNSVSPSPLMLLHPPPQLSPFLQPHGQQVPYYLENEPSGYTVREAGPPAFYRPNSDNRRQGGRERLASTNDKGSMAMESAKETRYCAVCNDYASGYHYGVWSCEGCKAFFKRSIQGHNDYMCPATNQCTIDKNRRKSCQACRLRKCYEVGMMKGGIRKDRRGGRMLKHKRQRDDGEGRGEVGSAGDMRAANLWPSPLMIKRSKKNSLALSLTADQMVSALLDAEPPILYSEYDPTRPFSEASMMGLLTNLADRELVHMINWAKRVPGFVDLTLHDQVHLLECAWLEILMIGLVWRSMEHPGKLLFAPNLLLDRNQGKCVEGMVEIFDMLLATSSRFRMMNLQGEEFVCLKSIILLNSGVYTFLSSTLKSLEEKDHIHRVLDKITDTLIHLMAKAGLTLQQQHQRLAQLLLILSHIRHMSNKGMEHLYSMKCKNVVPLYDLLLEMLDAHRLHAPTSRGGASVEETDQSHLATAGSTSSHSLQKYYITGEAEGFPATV
Method: (§1) ERα infected HAECT-1 cells or control cells were thawed, diluted 42× in warm EBM-BSA, plated into 96-well plates at 0.1 ml/well and incubated for 4 h at 34° C. Test compounds were added to the cells as 2× stocks in EBM-BSA containing 2 ng/ml IL-1β (R&D Systems) and plates were returned to the incubator (34° C.). After 15-20 h, 100 μl aliquots of media were removed from the cells and assayed for IL-6 content using a BioSource human IL-6 ELISA Kit. Cells were subsequently washed with 300 μl of Dulbecco's phosphate buffered saline and lysed in 50 μl of Cell Culture Lysis Reagent (Promega). Creatine kinase was determined from the rate of increase in A340 following addition of 100 μl of CK assay reagent (Sigma, cat. No 47-10) to the remainder of the cell lysate.
(§2) For IC50 and EC50 calculations, mean IL-6 or CK values versus log10 of the compound concentration were fitted to a four parameter logistic equation. The IC50/EC50 value, ‘Hill slope’, upper and lower limits of the curve were iteratively estimated.

ERα [2] = molecular target: T1, ERα; experiment: Creatine kinase (CK) assay in ERα infected HAECT-1 cells; assay type: cell-based; settings: for ER/CK % E2: efficacy relative to the maximal stimulation observed with E2
Method: as §1, §2

[3] = Ad5-wt-ER infected HAECT-1 cells, creatine kinase in cell lysate

SMILES	IC50 (ERα [1])	ER/IL-6 % E2 (ERα [1])	EC50 (ERα [2]; [3])	ER/CK % E2 (ERα [2])	EC50 (ERα [2]; cells of the EC50 column printed in uM, read-out: ER/CK EC50)
CC[C@@H]1C(=O)N(C)c2cc(F)ccc2N1C(=O)c1cccc(O)c1 [Example 4, (3R)-3-Ethyl-7-fluoro-4-(3-hydroxybenzoyl)-1-methyl-3,4-dihydroquinoxalin-2(1H)-one]	520 nM	57 % E2	0.126 µM	19 % E2	–
CC[C@@H]1C(=O)N(Cc2ccccc2)c2cc(F)ccc2N1C(=O)c1ccc(O)cc1 [Example 2, (3R)-1-Benzyl-3-Ethyl-7-fluoro-4-(4-hydroxybenzoyl)-3,4-dihydroquinoxalin-2(1H)-one]	1230 nM	80 % E2	–	24 % E2	> 10 µM
CC[C@@H]1C(=O)N(CC(C)C)c2ccc(F)cc2N1C(=O)c1ccc(O)cc1 [Example 14, (3R)-3-Ethyl-6-fluoro-4-(4-hydroxybenzoyl)-1-isobutyl-3,4-dihydroquinoxalin-2(1H)-one]	262 nM	87 % E2	–	–	–
CC[C@@H]1C(=O)N(C)c2ccc(F)cc2N1C(=O)c1ccc(O)cc1 [Example 15, (3R)-3-Ethyl-6-fluoro-4-(4-hydroxybenzoyl)-1-methyl-3,4-dihydroquinoxalin-2(1H)-one]	102 nM	84 % E2	–	–	–
CC[C@@H]1C(=O)N(C(C)C)c2ccc(F)cc2N1C(=O)c1ccc(O)cc1 [Example 11, (3R)-3-Ethyl-6-fluoro-4-(4-hydroxybenzoyl)-1-isopropyl-3,4-dihydroquinoxalin-2(1H)-one]	105 nM	91 % E2	–	–	–
CC[C@H]1C(=O)N(CC)c2ccc(F)cc2N1C(=O)c1ccc(O)cc1 [Example 6, (3S)-1,3-Diethyl-6-fluoro-4-(4-hydroxybenzoyl)-3,4-dihydroquinoxalin-2(1H)-one]	285 nM	44 % E2	–	–	–
CCCCCN1C(=O)[C@@H](CC)N(C(=O)c2ccc(O)cc2)c2cc(F)ccc21 [Example 13, (3R)-3-Ethyl-6-fluoro-4-(4-hydroxybenzoyl)-1-pentyl-3,4-dihydroquinoxalin-2(1H)-one]	89 nM	102 % E2	–	–	–
CC[C@@H]1C(=O)N(CC)c2ccc(F)cc2N1C(=O)c1ccc(O)cc1 [Example 8, (3R)-1,3-Diethyl-6-fluoro-4-(4-hydroxybenzoyl)-3,4-dihydroquinoxalin-2(1H)-one]	139 nM	99 % E2	–	–	–
CCCCN1C(=O)[C@@H](CC)N(C(=O)c2ccc(O)cc2)c2cc(F)ccc21 [Example 12, (3R)-1-Butyl-3-ethyl-6-fluoro-4-(4-hydroxybenzoyl)-3,4-dihydroquinoxalin-2(1H)-one]	52 nM	95 % E2	–	–	–
C=CCN1C(=O)[C@@H](CC)N(C(=O)c2ccc(O)cc2)c2cc(F)ccc21 [Example 10, (3R)-1-Allyl-3-ethyl-6-fluoro-4-(4-hydroxybenzoyl)-3,4-dihydroquinoxalin-2(1H)-one]	57 nM	95 % E2	–	–	–
CC[C@H]1C(=O)N(C)c2ccc(F)cc2N1C(=O)c1ccc(O)cc1 [Example 7, (3S)-3-Ethyl-6-fluoro-4-(4-hydroxybenzoyl)-1-methyl-3,4-dihydroquinoxalin-2(1H)-one]	303 nM	44 % E2	–	–	–
CCCN1C(=O)[C@@H](CC)N(C(=O)c2ccc(O)cc2)c2cc(F)ccc21 [Example 9, (3R)-3-Ethyl-6-fluoro-4-(4-hydroxybenzoyl)-1-propyl-3,4-dihydroquinoxalin-2(1H)-one]	222 nM	96 % E2	–	–	–

Further lines, results first:

IC50 (ERα [1])	ER/IL-6 % E2 (ERα [1])	EC50 (ERα [2]; [3])	ER/CK % E2 (ERα [2])	EC50 (ERα [2]; cells of the EC50 column printed in uM, read-out: ER/CK EC50)	SMILES
534 nM	40 % E2	–	–	–	CC[C@H]1C(=O)N(Cc2ccccc2)c2ccc(F)cc2N1S(=O)(=O)c1ccc(O)cc1 [Example 24, (3S)-1-benzyl-3-ethyl-6-fluoro-4-[(4-hydroxyphenyl)sulfonyl]-3,4-dihydroquinoxalin-2(1H)-one]
445 nM	96 % E2	–	–	–	CC[C@@H]1C(=O)N(C2CCCC2)c2ccc(F)cc2N1C(=O)c1ccc(O)cc1 [Example 17, (3R)-1-Cyclopentyl-3-ethyl-6-fluoro-4-(4-hydroxybenzoyl)-3,4-dihydroquinoxalin-2(1H)-one]
313 nM	106 % E2	–	–	–	CCCCN1C(=O)[C@H](CC)N(S(=O)(=O)c2ccc(O)cc2)c2cc(F)ccc21 [Example 23, (3S)-1-Butyl-3-ethyl-6-fluoro-4-[(4-hydroxyphenyl)sulfonyl]-3,4-dihydroquinoxalin-2(1H)-one]
157 nM	79 % E2	–	–	–	CCCN1C(=O)[C@H](CC)N(S(=O)(=O)c2ccc(O)cc2)c2cc(F)ccc21 [Example 20, (3S)-3-Ethyl-6-fluoro-4-[(4-hydroxyphenyl)sulfonyl]-1-propyl-3,4-dihydroquinoxalin-2(1H)-one]
296 nM	92 % E2	–	–	–	CC[C@H]1C(=O)N(C)c2ccc(C)cc2N1S(=O)(=O)c1ccc(O)cc1 [Example 28, (3S)-3-Ethyl-4-[(4-hydroxyphenyl)sulfonyl]-1,6-dimethyl-3,4-dihydroquinoxalin-2(1H)-one]
1170 nM	85 % E2	0.344 µM	20 % E2	–	CC[C@H]1C(=O)N(C)c2cc(F)ccc2N1S(=O)(=O)c1ccc(O)cc1 [Example 29, (3S)-3-Ethyl-7-fluoro-4-[(4-hydroxyphenyl)sulfonyl]-1-methyl-3,4-dihydroquinoxalin-2(1H)-one]
20 nM	96 % E2	0.169 µM	36 % E2	–	CC[C@@H]1C(=O)N(CC)c2ccc(F)cc2N1C(=O)c1ccc(O)cc1O [Example 18, (3R)-4-(2,4-Dihydroxybenzoyl)-1,3-diethyl-6-fluoro-3,4-dihydroquinoxalin-2(1H)-one]
413 nM	92 % E2	–	–	–	CC[C@H]1C(=O)N(CC)c2ccc(Br)cc2N1S(=O)(=O)c1ccc(O)cc1 [Example 33, (3S)-6-bromo-1,3-diethyl-4-[(4-hydroxyphenyl)sulfonyl]-3,4-dihydroquinoxalin-2(1H)-one]
181 nM	56 % E2	–	–	–	CCN1C(=O)[C@H](C)N(S(=O)(=O)c2ccc(O)cc2)c2cc(F)ccc21 [Example 21, (3S)-1-Ethyl-6-fluoro-4-[(4-hydroxyphenyl)sulfonyl]-3-methyl-3,4-dihydroquinoxalin-2(1H)-one]
258 nM	128 % E2	–	–	–	CC[C@H]1C(=O)N(C)c2ccc(Br)cc2N1S(=O)(=O)c1ccc(O)cc1 [Example 34, (3S)-6-bromo-3-ethyl-4-[(4-hydroxyphenyl)sulfonyl]-1-methyl-3,4-dihydroquinoxalin-2(1H)-one]
204 nM	83 % E2	–	–	–	CC[C@@H]1C(=O)N(CC(F)(F)F)c2ccc(F)cc2N1C(=O)c1ccc(O)cc1 [Example 16, (3R)-3-Ethyl-6-fluoro-4-(4-hydroxybenzoyl)-1-(2,2,2-trifluoroethyl)-3,4-dihydroquinoxalin-2(1H)-one]
1570 nM	71 % E2	–	–	–	CC[C@H]1C(=O)N(CC)c2cc(Br)ccc2N1S(=O)(=O)c1ccc(O)cc1 [Example 31, (3S)-7-Bromo-1,3-diethyl-4-[(4-hydroxyphenyl)sulfonyl]-3,4-dihydroquinoxalin-2(1H)-one]
447 nM	63 % E2	–	–	–	CC[C@H]1C(=O)N(CC)c2ccc(C)cc2N1S(=O)(=O)c1ccc(O)cc1 [Example 27, (3S)-1,3-diethyl-4-[(4-hydroxyphenyl)sulfonyl]-6-methyl-3,4-dihydroquinoxalin-2(1H)-one]
429 nM	90 % E2	–	–	–	CC[C@H]1C(=O)N(C)c2cc(Br)ccc2N1S(=O)(=O)c1ccc(O)cc1 [Example 32, (3S)-7-bromo-3-ethyl-4-[(4-hydroxyphenyl)sulfonyl]-1-methyl-3,4-dihydroquinoxalin-2(1H)-one]
5600 nM	55 % E2	–	–	–	C=CCN1C(=O)[C@H](CC)N(S(=O)(=O)c2ccc(O)cc2)c2cc(F)ccc21 [Example 22, (3S)-1-Allyl-3-ethyl-6-fluoro-4-[(4-hydroxyphenyl)sulfonyl]-3,4-dihydroquinoxalin-2(1H)-one]
